This assay has as its target T1, recombinant DDB1-CRBN (Homo sapiens, UniProt Q96SW2).
T1 construct: His; made in house; host or cells: High Five insect cells (baculovirus made and propagated in SF9 cells)
The assay can be described thus: Fluorescence polarization-based competition assay for CRBN binding. The settings on record: 200 nM CRBN-DDB1, 20 nM pomalidomide-fluorescein tracer 16, triplicates; read-out: FP_CRBN_binding: CRBN binding affinity, EC50. The method, then: Prior to screening the compound library in the isogenic CPA, we assessed their CRBN binding affinities using a fluorescence-polarization-based competition assay with recombinant DDB1-CRBN and the fluorescent tracer 16 (Figure S2). […] We also assessed the cytotoxicity of the CRBN binders in RKO wild-type (WT) cells to determine the appropriate treatment concentration. […]
Fluorescence Polarization‐based competition assay
Fluorescence Polarization assays were performed in 384‐well, Low Volume, Black, Round Bottom, Polystyrene Nonbinding surface Microplates (Corning, #4514). The test compounds were incubated with 200 nM CRBN‐DDB1 and 20 nM Pomalidomide‐fluorescein tracer 16 in 50 mM Tris‐HCl pH 7.5, 200 mM NaCl, 1 mM DTT, 0.02% Triton X‐ 100, and 0.1 µg/µL Bovine Serum Albumin (Sigma Aldrich, #A7030) in a total volume of 25 µL. Fluorescence polarization values were determined with a PerkinElmer Envision reader with FITC FP dual mirror and FITC FP 480 excitation filter and FITC FP 535 emission filters. Fluorescence polarization values of a 10x serial dilution (10 nM to 100 µM) of the test compounds were determined in triplicates. EC50 values were calculated with GraphPad Prism software (version 10.0.2) with a non‐linear fit function (4PL sigmoidal curve fit) adjusting the bottom constrain to the FP value of free tracer. […]
In general terms: Polarisation of emitted light reports the rotation of a fluorescent probe.
As a reminder, the EC50 is the concentration that produces a half-maximal response. With `O=C1CCC(N2C(=O)c3cccc(Nc4cccc(OS(=O)(=O)N5CCC(c6ccco6)C5)c4)c3C2=O)C(=O)N1` (stereo not shown) [FL3-12], the EC50 stood at 2700 nM.
With `Cc1cn2c(n1)CN(S(=O)(=O)Oc1cccc(Nc3cccc4c3C(=O)N(C3CCC(=O)NC3=O)C4=O)c1)CC2` (stereo not shown) [FL3-13] the figure was 472 nM; with `CN(Cc1ncc(C2CC2)o1)S(=O)(=O)Oc1cccc(Nc2cccc3c2C(=O)N(C2CCC(=O)NC2=O)C3=O)c1` (stereo not shown) [FL3-14], 882 nM.
As to `CN(Cc1ccc2[nH]nnc2c1)S(=O)(=O)Oc1cccc(Nc2cccc3c2C(=O)N(C2CCC(=O)NC2=O)C3=O)c1` (stereo not shown) [FL3-15], the EC50 came to 990 nM.
`O=C1CCC(N2C(=O)c3cccc(Nc4cccc(OS(=O)(=O)N5CCC(c6ccncc6)CC5)c4)c3C2=O)C(=O)N1` (stereo not shown) [FL3-16]: the EC50 worked out at 264 nM.
In the case of `CC1c2cc(F)ccc2CCN1S(=O)(=O)Oc1cccc(Nc2cccc3c2C(=O)N(C2CCC(=O)NC2=O)C3=O)c1` (stereo not shown) [FL3-17] it was 1310 nM.
Regarding `CN(C)c1ncc(CN(C)S(=O)(=O)Oc2cccc(Nc3cccc4c3C(=O)N(C3CCC(=O)NC3=O)C4=O)c2)cn1` (stereo not shown) [FL3-18], the EC50 was 676 nM.
Take `CC1c2cccn2CCN1S(=O)(=O)Oc1cccc(Nc2cccc3c2C(=O)N(C2CCC(=O)NC2=O)C3=O)c1` (stereo not shown) [FL3-19]: the EC50 stood at 742 nM.
With `CN(Cc1ccc2c(c1)OCO2)S(=O)(=O)Oc1cccc(Nc2cccc3c2C(=O)N(C2CCC(=O)NC2=O)C3=O)c1` (stereo not shown) [FL3-20] the figure was 1570 nM; with `CN(C1CC1)S(=O)(=O)Oc1cccc(Nc2cccc3c2C(=O)N(C2CCC(=O)NC2=O)C3=O)c1` (stereo not shown) [FL3-21], 1020 nM; with `CC(O)CN(C)S(=O)(=O)Oc1ccc(Nc2cccc3c2C(=O)N(C2CCC(=O)NC2=O)C3=O)cc1` (stereo not shown) [FL4-1], 370 nM.
For the molecule `O=C1CCC(N2C(=O)c3cccc(Nc4ccc(OS(=O)(=O)N5CC(CCO)C5)cc4)c3C2=O)C(=O)N1` (stereo not shown) [FL4-2], the EC50 turned out to be 557 nM.
In the case of `CC(C)(O)C1CCN(S(=O)(=O)Oc2ccc(Nc3cccc4c3C(=O)N(C3CCC(=O)NC3=O)C4=O)cc2)C1` (stereo not shown) [FL4-4] it was 688 nM; in that of `O=C1CCC(N2C(=O)c3cccc(Nc4ccc(OS(=O)(=O)N5CCOCC5)cc4)c3C2=O)C(=O)N1` (stereo not shown) [FL4-5], 652 nM; in that of `C[C@@H]1C[C@H](C)CN(S(=O)(=O)Oc2ccc(Nc3cccc4c3C(=O)N(C3CCC(=O)NC3=O)C4=O)cc2)C1` (stereo partly shown) [FL4-6], 3650 nM.
With `CC1(C)CN(S(=O)(=O)Oc2ccc(Nc3cccc4c3C(=O)N(C3CCC(=O)NC3=O)C4=O)cc2)CCS1(=O)=O` (stereo not shown) [FL4-7] the figure was 741 nM.
With `CC1(C)CN(S(=O)(=O)Oc2ccc(Nc3cccc4c3C(=O)N(C3CCC(=O)NC3=O)C4=O)cc2)CC2(CCOC2)O1` (stereo not shown) [FL4-8] the figure was 1960 nM.
As to `O=C1CCC(N2C(=O)c3cccc(Nc4ccc(OS(=O)(=O)N5CC6(CNC(=O)N6)C5)cc4)c3C2=O)C(=O)N1` (stereo not shown) [FL4-9], the EC50 worked out at 445 nM.
In the case of `O=C1CCC(N2C(=O)c3cccc(Nc4ccc(OS(=O)(=O)N5C[C@@H](F)[C@H](F)C5)cc4)c3C2=O)C(=O)N1` (stereo partly shown) [FL4-10] it was 830 nM.
In the case of `CN(Cc1ncnn1C)S(=O)(=O)Oc1ccc(Nc2cccc3c2C(=O)N(C2CCC(=O)NC2=O)C3=O)cc1` (stereo not shown) [FL4-11] it was 538 nM.
As for `O=C1CCC(N2C(=O)c3cccc(Nc4ccc(OS(=O)(=O)N5CCC(c6ccco6)C5)cc4)c3C2=O)C(=O)N1` (stereo not shown) [FL4-12], the EC50 was 4560 nM.
Regarding `Cc1cn2c(n1)CN(S(=O)(=O)Oc1ccc(Nc3cccc4c3C(=O)N(C3CCC(=O)NC3=O)C4=O)cc1)CC2` (stereo not shown) [FL4-13], the EC50 was found to be 463 nM.
For the molecule `CN(Cc1ncc(C2CC2)o1)S(=O)(=O)Oc1ccc(Nc2cccc3c2C(=O)N(C2CCC(=O)NC2=O)C3=O)cc1` (stereo not shown) [FL4-14], the EC50 is 996 nM.
As to `CN(Cc1ccc2[nH]nnc2c1)S(=O)(=O)Oc1ccc(Nc2cccc3c2C(=O)N(C2CCC(=O)NC2=O)C3=O)cc1` (stereo not shown) [FL4-15], the EC50 turned out to be 2130 nM.
With `O=C1CCC(N2C(=O)c3cccc(Nc4ccc(OS(=O)(=O)N5CCC(c6ccncc6)CC5)cc4)c3C2=O)C(=O)N1` (stereo not shown) [FL4-16] the figure was 971 nM.
With `CC1c2cc(F)ccc2CCN1S(=O)(=O)Oc1ccc(Nc2cccc3c2C(=O)N(C2CCC(=O)NC2=O)C3=O)cc1` (stereo not shown) [FL4-17] the figure was 983 nM; with `CN(C)c1ncc(CN(C)S(=O)(=O)Oc2ccc(Nc3cccc4c3C(=O)N(C3CCC(=O)NC3=O)C4=O)cc2)cn1` (stereo not shown) [FL4-18], 1610 nM; with `CC1c2cccn2CCN1S(=O)(=O)Oc1ccc(Nc2cccc3c2C(=O)N(C2CCC(=O)NC2=O)C3=O)cc1` (stereo not shown) [FL4-19], 687 nM.
In the case of `CN(Cc1ccc2c(c1)OCO2)S(=O)(=O)Oc1ccc(Nc2cccc3c2C(=O)N(C2CCC(=O)NC2=O)C3=O)cc1` (stereo not shown) [FL4-20] it was 1720 nM; in that of `CN(C1CC1)S(=O)(=O)Oc1ccc(Nc2cccc3c2C(=O)N(C2CCC(=O)NC2=O)C3=O)cc1` (stereo not shown) [FL4-21], 1080 nM; in that of `C[C@@H](O)CN(C)S(=O)(=O)Oc1ccc(C2CCC(=O)NC2=O)cc1` (stereo partly shown) [FL5-1], 914 nM.
Consider `O=C1CCC(c2ccc(OS(=O)(=O)N3CC(CCO)C3)cc2)C(=O)N1` (stereo not shown) [FL5-2], for which the EC50 came out at 1060 nM.
With `CC(C)(O)C1CCN(S(=O)(=O)Oc2ccc(C3CCC(=O)NC3=O)cc2)C1` (stereo not shown) [FL5-4] the figure was 948 nM.
Take `O=C1CCC(c2ccc(OS(=O)(=O)N3CCOCC3)cc2)C(=O)N1` (stereo not shown) [FL5-5]: the EC50 stood at 829 nM.
In the case of `C[C@@H]1C[C@H](C)CN(S(=O)(=O)Oc2ccc(C3CCC(=O)NC3=O)cc2)C1` (stereo partly shown) [FL5-6] it was 4690 nM; in that of `CC1(C)CN(S(=O)(=O)Oc2ccc(C3CCC(=O)NC3=O)cc2)CCS1(=O)=O` (stereo not shown) [FL5-7], 864 nM.
In the case of `CC1(C)CN(S(=O)(=O)Oc2ccc(C3CCC(=O)NC3=O)cc2)CC2(CCOC2)O1` (stereo not shown) [FL5-8] it was 1340 nM; in that of `O=C1CCC(c2ccc(OS(=O)(=O)N3CC4(CNC(=O)N4)C3)cc2)C(=O)N1` (stereo not shown) [FL5-9], 1050 nM; in that of `O=C1CCC(c2ccc(OS(=O)(=O)N3C[C@@H](F)[C@H](F)C3)cc2)C(=O)N1` (stereo partly shown) [FL5-10], 893 nM.
As to `CN(Cc1ncnn1C)S(=O)(=O)Oc1ccc(C2CCC(=O)NC2=O)cc1` (stereo not shown) [FL5-11], the EC50 is 1270 nM.
For the molecule `O=C1CCC(c2ccc(OS(=O)(=O)N3CCC(c4ccco4)C3)cc2)C(=O)N1` (stereo not shown) [FL5-12], the EC50 worked out at 705 nM.
Consider `Cc1cn2c(n1)CN(S(=O)(=O)Oc1ccc(C3CCC(=O)NC3=O)cc1)CC2` (stereo not shown) [FL5-13], for which the EC50 worked out at 771 nM.
For the molecule `CN(Cc1ncc(C2CC2)o1)S(=O)(=O)Oc1ccc(C2CCC(=O)NC2=O)cc1` (stereo not shown) [FL5-14], the EC50 came to 600 nM.
In the case of `CN(Cc1ccc2[nH]nnc2c1)S(=O)(=O)Oc1ccc(C2CCC(=O)NC2=O)cc1` (stereo not shown) [FL5-15] it was 502 nM; in that of `O=C1CCC(c2ccc(OS(=O)(=O)N3CCC(c4ccncc4)CC3)cc2)C(=O)N1` (stereo not shown) [FL5-16], 4220 nM; in that of `CC1c2cc(F)ccc2CCN1S(=O)(=O)Oc1ccc(C2CCC(=O)NC2=O)cc1` (stereo not shown) [FL5-17], 908 nM.
Take `CN(C)c1ncc(CN(C)S(=O)(=O)Oc2ccc(C3CCC(=O)NC3=O)cc2)cn1` (stereo not shown) [FL5-18]: the EC50 is 586 nM.
In the case of `CC1c2cccn2CCN1S(=O)(=O)Oc1ccc(C2CCC(=O)NC2=O)cc1` (stereo not shown) [FL5-19] it was 940 nM.
`CN(Cc1ccc2c(c1)OCO2)S(=O)(=O)Oc1ccc(C2CCC(=O)NC2=O)cc1` (stereo not shown) [FL5-20]: the EC50 was determined as 775 nM.
In the case of `CN(C1CC1)S(=O)(=O)Oc1ccc(C2CCC(=O)NC2=O)cc1` (stereo not shown) [FL5-21] it was 899 nM; in that of `C[C@@H](O)CN(C)S(=O)(=O)Oc1cccc(C2CCC(=O)NC2=O)c1` (stereo partly shown) [FL6-1], 584 nM; in that of `O=C1CCC(c2cccc(OS(=O)(=O)N3CC(CCO)C3)c2)C(=O)N1` (stereo not shown) [FL6-2], 1250 nM.
In the case of `CC(C)(O)C1CCN(S(=O)(=O)Oc2cccc(C3CCC(=O)NC3=O)c2)C1` (stereo not shown) [FL6-4] it was 1300 nM; in that of `O=C1CCC(c2cccc(OS(=O)(=O)N3CCOCC3)c2)C(=O)N1` (stereo not shown) [FL6-5], 679 nM; in that of `C[C@@H]1C[C@H](C)CN(S(=O)(=O)Oc2cccc(C3CCC(=O)NC3=O)c2)C1` (stereo partly shown) [FL6-6], 961 nM.
With `CC1(C)CN(S(=O)(=O)Oc2cccc(C3CCC(=O)NC3=O)c2)CCS1(=O)=O` (stereo not shown) [FL6-7] the figure was 743 nM; with `CC1(C)CN(S(=O)(=O)Oc2cccc(C3CCC(=O)NC3=O)c2)CC2(CCOC2)O1` (stereo not shown) [FL6-8], 1340 nM.
As for `O=C1CCC(c2cccc(OS(=O)(=O)N3CC4(CNC(=O)N4)C3)c2)C(=O)N1` (stereo not shown) [FL6-9], the EC50 amounted to 713 nM.
On to `O=C1CCC(c2cccc(OS(=O)(=O)N3C[C@@H](F)[C@H](F)C3)c2)C(=O)N1` (stereo partly shown) [FL6-10], for which the EC50 is 1140 nM.
For `CN(Cc1ncnn1C)S(=O)(=O)Oc1cccc(C2CCC(=O)NC2=O)c1` (stereo not shown) [FL6-11], the EC50 came to 887 nM.
For `O=C1CCC(c2cccc(OS(=O)(=O)N3CCC(c4ccco4)C3)c2)C(=O)N1` (stereo not shown) [FL6-12], the EC50 was 570 nM.
In the case of `Cc1cn2c(n1)CN(S(=O)(=O)Oc1cccc(C3CCC(=O)NC3=O)c1)CC2` (stereo not shown) [FL6-13] it was 1080 nM.
For `CN(Cc1ncc(C2CC2)o1)S(=O)(=O)Oc1cccc(C2CCC(=O)NC2=O)c1` (stereo not shown) [FL6-14], the EC50 was 837 nM.
With `CN(Cc1ccc2[nH]nnc2c1)S(=O)(=O)Oc1cccc(C2CCC(=O)NC2=O)c1` (stereo not shown) [FL6-15] the figure was 520 nM.

Source of the values: paper PMC10764104, “Discovery of Molecular Glue Degraders via Isogenic Morphological Profiling” (ACS Chemical Biology, 2023).
